Measurements as given in patent US6214805A, “RNase L activators and antisense oligonucleotides effective to treat RSV infections” (priority 1997, dated 2001).
Like-named read-outs stand apart in the source and are kept apart here.

Assays:
[1] = system: A2 strain RSV; experiment: CPE inhibition assay in MA-104 cells; format: cell-based, Respiratory syncytial virus
Description: The CPE inhibition assay used in this study was performed as described by Sidwell and Huffman (Sidwell et al., 1971, Appl. Microbiol. 22:7979-7801) with slight modifications. Varying concentrations of test compounds were added to each plate containing near confluent cell monolayers (1×10^5 cells/well) followed immediately by the addition of virus at a multiplicity of infection (MOI)=0.01, and then incubated at 37° C. On the following day, the medium from each plate was removed and fresh compound added. The assay was stopped at the end of the sixth day when the virus cytopathic effect in the virus infected, untreated control cells affected all cells. All compounds were assayed for virus inhibition in quadruplicate and for cytotoxicity in duplicate. For each compound, two wells were set aside as uninfected, untreated cell controls per test and four wells per test received virus only and represented controls for virus replication. […] For all CPE-based assays, the 50% effective concentration (EC50) was calculated by regression analysis using the means of the CPE ratings at each concentration of compound.
EC50 Concentration for 50% inhibition of virus replication (microM)
(§1) Determined in MA-104 cells, A2 strain RSV

[2] = system: MA-104 cells; experiment: Cytotoxicity graded by morphological change in MA-104 cells; format: cell-based, African green monkey
Description: Embryonic African green monkey kidney cells (MA-104) were obtained from BioWhittaker, Inc. (Walkersville, Md.). HEp-2 cells were propagated from a human epidermoid carcinoma of the larynx (American Type Culture Collection, ATCC; Rockville, Md.). The cells were grown in minimal essential medium. (MEM, Gibco-BRL, Gaitherburg, Md.) supplemented with 0.1% NaHCO3 and 10% fetal bovine serum (FBS, Hyclone Laboratories, Logan Utah.). When performing antiviral assays, serum was reduced to 2% and 50 μg/ml gentamicin (Sigma Chemical Company, St. Louis, Mo.) was added to the medium.
Morphological changes due to compound cytotoxicity were graded on a scale of 0-5; grade 5 was defined as 100% cytotoxicity. The 50% cytotoxic dose (IC50 was calculated by regression analysis. A selective index (S.I.) was calculated for each compound [S.I.=(IC50)/(EC50 ].
IC50 Conc. for 50% cytotoxicity grade by morphological change (microM)
as §1

[3] = MA-104 cells, A2 strain RSV (Table 8), read-out: EC50 Concentration for 50% inhibition of virus replication
[4] = MA-104 cells (Table 8), read-out: IC50 Conc. for 50% cytotoxicity grade by morphological change
[5] = Table 8, text says HEP-2 cells, read-out: EC50 (inhibition of RSV replication)
[6] = Table 8, text says HEP-2 cells, read-out: IC50 (toxicity)

Substance | EC50 [1, 3] [µM] | IC50 [2, 4] [µM] | EC50 [1, 5] [µM] | IC50 [2, 6] [µM]
AsAsAsAATGGGGCAAAsTsAsA (AAAAATGGGGCAAATAA; antisense; DNA, linkages s3 o10 s3 (s phosphorothioate, o phosphodiester), methylation of C not given here) [MP320, gapmer antisense oligonucleotide, three thiophosphorylated linkages at both termini] | 10 | > 10 |  | 
AsAsAsAsAsTsGsGsGsGsCsAsAsAsTsAsA (AAAAATGGGGCAAATAA; antisense; DNA, all phosphorothioate, methylation of C not given here) [MP273] | 3 | > 10 | 3 | > 10
AsTsAsAsGsGsGsGsAsAsCsAsTsAsAsAsA (ATAAGGGGAACATAAAA; antisense; DNA, all phosphorothioate, methylation of C not given here) [MP317, control all PS oligonucleotide that still contained the G quartet motif but otherwise scrambled] | 1 | 5 | 1 | 5
GsAsAsGsAsCsAsGsAsAsTsAsAsGsAsTsA (GAAGACAGAATAAGATA; antisense; DNA, all phosphorothioate, methylation of C not given here) [MP318] | 10 | 8 | 10 | 8
